Reference: US20090298793A1, “Acylgycerophospholipids for treating symptoms concomitant with cancer” (KTB TUMORFORSCHUNGSGESELLSCHAFT MBH, priority 2005, published 2009)

Legend:
tumor cells = settings: Nagami et al., Bioorganic & Medicinal Chemistry Letters 16: 782-785 (2006); cited from earlier work
[1] = tested on: human kidney cell carcinoma RXF 486; test: Course of weight of naked mice bearing cachexia-inducing human kidney cell carcinoma RXF 486; format: in vivo; settings: 33 mg/kg DPPC p.o., days 0-4, 7-11, 14, 17, 18; liposomal dispersion in saline; n=3; p <0.001
Excerpt: Tumors from the human kidney cell carcinoma RXF 486 have a string cachexia-inducing effect.
Female athymic BALB/c nude mice (nu/nu) (Charles River, Frederick, Md.) at the age of 8 to 10 weeks were employed. […] They were allowed water and rodent food (Altromin, Lage, Germany) ad libitum.
Fragments of 3-5 mm (in diameter) of the human kidney cell carcinoma RXF 486 were subcutaneously grafted between the animals' front and rear flanks. The therapy experiments were begun when the tumors had reached a size of 30-40 mm^3.
For the therapy, synthetic PL (dipalmitoylphosphatidylcholine, DPPC; Sygena, Liestal, Switzerland) was employed. It was dispersed in 0.9% (w/v) saline in a concentration of 33 mg/ml (ultrasonic dispersion in 50 ml Falcon tube) to provide a heterogeneous liposomal dispersion. For the oral administration (p.o.), the dispersion was adjusted to 3.3 mg/ml with saline.
On experiment days 0-4, 7-11, 14, 17 and 18, the animals were treated with 33 mg each per kg of body weight of DPPC p.o. by a stomach tube (application volume: 10 ml/kg). The control animals only obtained saline. The weight of the animals was determined on days 0, 2, 4, 7, 9, 11, 14, 18, 21, 25, 26 and 29 and is shown in FIG. 1 in % of the weight on day 0.

Row | SMILES | apoptosis and necrosis in tumor cells (tumor cells) | weight loss as compared to an untreated control group [1]
1 | CCCCCCCCCCCCCC(=O)OC[C@H](COP(=O)([O-])OCC[N+](C)(C)C)OC(=O)CCCCCCCCCCCCC [dimyristoyl-PC, reference compound] | produces apoptosis and necrosis | –
2 | CCCCCCCCCCCCCCCC(=O)OC[C@H](COP(=O)([O-])OCC[N+](C)(C)C)OC(=O)CCCCCCCCCCCCCCC [DPPC, dipalmitoylphosphatidylcholine] | does not show such an effect | virtually stopped
